Measured values published in US5801180A, “Quinazoline derivatives” (priority 1991, dated 1998).

Target: T1, cGMP-PDE prepared from the swine aeorta (Sus scrofa, UniProt A0A287B475)
T1 construct: The swine aeorta was sliced; from tissue; host or cells: swine aorta, 100000×g supernatant, DEAE-Toyopearl 650S fraction
Assay: Enzyme inhibiting action with the use of cGMP-PDE prepared from the swine aorta
Format: biochemical
Conditions: CaM-independent cGMP-PDE, 1 mM EGTA, 1 μM cGMP substrate, DMSO 4% or below
How it was run: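 CaM-independent cGMP-PDE isolated from pig aorta supernatant by DEAE anion-exchange chromatography. Activity measured with 1 μM cGMP substrate in presence of 1 mM EGTA, following the Thompson method. Compounds added from DMSO, final DMSO 4% or below.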

SMILES	IC50 [nM]
CCOC(=O)CCCNc1nc(NCc2ccc3c(c2)OCO3)c2cc(Cl)ccc2n1 [Example 214, 2-(3-Ethoxycarbonylpropyl)amino-4-(3,4-methylenedioxybenzyl)amino-6-chloroquinazoline]	9
CCOC(=O)CCCCCNc1nc(NCc2ccc3c(c2)OCO3)c2cc(Cl)ccc2n1 [Example 216, 2-(5-Ethoxycarbonylpentyl)amino-4-(3,4-methylenedioxybenzyl)amino-6-chloroquinazoline]	17
CCOC(=O)CCCN(C)c1nc(NCc2ccc(OC)c(Cl)c2)c2cc(C#N)ccc2n1 [Example 220]	0.24
O=C(O)C1CCN(c2nc(NCc3ccc4c(c3)OCO4)c3cc(Cl)ccc3n2)CC1 [Example 222, 2-(4-Carboxypiperidino)-4-(3,4-methylenedioxybenzyl)amino-6-chloroquinazoline]	6.5
N#Cc1ccc2nc(N3CCC(C(=O)O)CC3)nc(NCc3ccc4c(c3)OCO4)c2c1 [Example 227, 2-(4-Carboxypiperidino)-4-(3,4-methylenedioxybenzyl)amino-6-cyanoquinazoline]	2.6
COc1ccc(CNc2nc(N3CCC(C(=O)O)CC3)nc3ccc(C#N)cc23)cc1Cl [Example 228, 2-(4-Carboxypiperidino)-4-(3-chloro-4-methoxybenzyl)amino-6-cyanoquinazoline]	0.52
CN(CCCC(=O)O)c1nc(NCc2ccc3c(c2)OCO3)c2cc(C#N)ccc2n1 [Example 230, 2-[N-(3-Carboxypropyl)-N-methylamino]-4-(3,4-methylenedioxybenzyl)amino-6-cyanoquinazoline]	5.8
COc1cc2c(NCc3ccc4c(c3)OCO4)nc(N3CCC(C(=O)O)CC3)nc2c(OC)c1OC [Example 231, 2-(4-Carboxypiperidino)-4-(3,4-methylenedioxybenzyl)amino-6,7,8-trimethoxyquinazoline]	410
COc1ccc(CNc2nc(N3CCC(C(=O)O)CC3)nc3c(OC)c(OC)c(OC)cc23)cc1Cl [Example 232, 2-(4-Carboxypiperidino)-4-(3-chloro-4-methoxybenzyl)amino-6,7,8-trimethoxyquinazoline]	44
COc1ccc2nc(N3CCC(C(=O)O)CC3)nc(NCc3ccc4c(c3)OCO4)c2c1 [Example 233, 2-(4-Carboxypiperidino)-4-(3,4-methylenedioxybenzyl)amino-6-methoxyquinazoline]	13
COc1ccc2nc(N3CCC(C(=O)O)CC3)nc(NCc3ccc(OC)c(Cl)c3)c2c1 [Example 234, 2-(4-Carboxypiperidino)-4-(3-chloro-4-mehtoxybenzyl)amino-6-methoxyquinazoline]	6
COc1ccc(CNc2nc(N3CCC(C(=O)O)CC3)nc3ccc(Cl)cc23)cc1Cl [Example 235, 2-(4-Carboxypiperidino)-4-(3-chloro-4-methoxybenzyl)amino-6-chloroquinazoline]	2
O=C(O)C1CCN(c2nc(NCc3ccc4[nH]cnc4c3)c3cc(Cl)ccc3n2)CC1 [Example 236, 2-(4-Carboxypiperidino)-4-(benzimidazol-5-yl)methylamino-6-chloroquinazoline]	6
O=C(O)CNc1nc(NCc2ccc3c(c2)OCO3)c2cc(Cl)ccc2n1 [Example 237, 2-(Carboxymethyl)amino-4-(3,4-methylenedioxybenzyl)amino-6-chloroquinazoline]	14
O=C(O)CCCNc1nc(NCc2ccc3c(c2)OCO3)c2cc(Cl)ccc2n1 [Example 238, 2-(3-Carboxypropyl)amino-4-(3,4-methylenedioxybenzyl)amino-6-chloroquinazoline]	5
O=C(O)CCCCCNc1nc(NCc2ccc3c(c2)OCO3)c2cc(Cl)ccc2n1 [Example 239, 2-(5-Carboxypentyl)amino-4-(3,4-methylenendioxybenzyl)amino-6-chloroquinazoline]	8
CN(CCCC(=O)O)c1nc(NCc2ccc3c(c2)OCO3)c2cc(Cl)ccc2n1 [Example 240, 2-[N-(3-Carboxypropyl)-N-methylamino]-4-(3,4-methylenedioxybenzyl)amino-6-chloroquinazoline]	4
CN(CC(=O)O)c1nc(NCc2ccc3c(c2)OCO3)c2cc(C#N)ccc2n1 [Example 241, 2-(N-Carboxymethyl-N-methylamino)-4-(3,4-methylenedioxybenzyl)amino-6-cyanoquinazoline]	180
COc1ccc(CNc2nc(N(C)CCCC(=O)O)nc3ccc(C#N)cc23)cc1Cl [Example 243, 2-[N-(3-Carboxypropyl)-N-methylamino]-4-(3-chloro-4-methoxybenzyl)amino-6-cyanoquinazoline]	0.15
N#Cc1ccc2nc(N3CCC(C(=O)O)CC3)nc(NCc3ccc4nc[nH]c4c3)c2c1 [Example 244, 2-(4-Carboxypiperidino)-4-(benzimidazol-5-yl)methylamino-6-cyanoquinazoline]	9
NC(=O)c1ccc2nc(N3CCC(C(=O)O)CC3)nc(NCc3ccc4c(c3)OCO4)c2c1 [Example 245, 2-(4-Carboxypiperidino)-4-(3,4-methylenedioxybenzyl)amino-6-carbamoylquinazoline]	100
O=C(O)C1CCN(c2cc(NCc3ccc4c(c3)OCO4)c3cc(Cl)ccc3n2)CC1 [Example 255, 2-(4-Carboxypiperidino)-4-(3,4-methylenedioxybenzyl)amino-6chloroquinoline]	32
COc1ccc(CNc2cc(N3CCC(C(=O)O)CC3)nc3ccc(Cl)cc23)cc1Cl [Example 256, 2-(4-Carboxypiperidino)-4-(3-chloro-4-methoxybenzyl)amino-6-chloroquinoline]	2.1
COc1ccc(CNc2cc(N3CCC(C(=O)O)CC3)nc3ccc(C#N)cc23)cc1Cl [Example 260, 2-(4-Carboxypiperidino)-4-(3-chloro-4-methoxybenzyl)amino-6-cyanoquinoline]	0.16
O=C(O)C1CCN(c2nc(NCc3ccc4c(c3)OCO4)c3cccnc3n2)CC1 [Example 262]	880
COc1nc2ccc(Cl)cc2n1Cc1ccc2c(c1)OCO2 [Example 266, 6-Chloro-2-methoxy-1-(3,4-methylenedioxybenzyl)benzimidazole]	110
Clc1ccc2nc(-n3ccnc3)n(Cc3ccc4c(c3)OCO4)c2c1 [Example 278, 6-Chloro-2-(imidazol-1-yl)-1-(3,4-methylenedioxybenzyl)benzimidazole]	250
O=C(O)C1CCN(c2nc3ccc(Cl)cc3n2Cc2ccc3c(c2)OCO3)CC1 [Example 280, 2-(4-Carboxypiperidino)-6-chloro-1-(3,4-methylenedioxybenzyl)benzimidazole]	250
O=C(O)C1CCN(c2nc(NCc3ccc4c(c3)OCO4)c3cc(Br)ccc3n2)CC1 [Example 376]	21
